Measured values taken from ChEMBL document CHEMBL3616455, “Anti-adipogenic activity of a new cyclic diarylheptanoid isolated from Alnus japonica on 3T3-L1 cells via modulation of PPARγ, C/EBPα and SREBP1c signaling” (Bioorg Med Chem Lett, 2015).
Activity calls are given as the source filed them. The rule behind the calls is not given here.

Key:
Mus musculus = species: Mus musculus; experiment: Inhibition of PPARgamma/C/EBPalpha/SREBP1c in mouse 3T3L1 preadipocytes assessed as inhibition of adipocyte differentiation by measuring remaining lipid content at 100 uM measured on day 8 by Oil Red O staining-based spectrophotometric analysis relative to control; assay type: cell-based
[1] = Downregulation of C/EBPdelta mRNA expression in mouse 3T3L1 preadipocytes at 50 to 100 uM measured on day 2 by qRT-PCR analysis; assay type: functional, cell-based; conditions: 3T3-L1
[2] = Downregulation of C/EBPbeta mRNA expression in mouse 3T3L1 preadipocytes at 50 to 100 uM measured on day 2 by qRT-PCR analysis; assay type: functional, cell-based; conditions: 3T3-L1
[3] = biological target: T1, Sterol regulatory element-binding protein 1 (Mus musculus) (UniProt Q9WTN3); experiment: Inhibition of SREBP1c in mouse 3T3L1 preadipocytes assessed as downregulation of FAS mRNA expression at 50 to 100 uM after 8 days by qRT-PCR analysis; assay type: cell-based
T1 sequence (whole entry): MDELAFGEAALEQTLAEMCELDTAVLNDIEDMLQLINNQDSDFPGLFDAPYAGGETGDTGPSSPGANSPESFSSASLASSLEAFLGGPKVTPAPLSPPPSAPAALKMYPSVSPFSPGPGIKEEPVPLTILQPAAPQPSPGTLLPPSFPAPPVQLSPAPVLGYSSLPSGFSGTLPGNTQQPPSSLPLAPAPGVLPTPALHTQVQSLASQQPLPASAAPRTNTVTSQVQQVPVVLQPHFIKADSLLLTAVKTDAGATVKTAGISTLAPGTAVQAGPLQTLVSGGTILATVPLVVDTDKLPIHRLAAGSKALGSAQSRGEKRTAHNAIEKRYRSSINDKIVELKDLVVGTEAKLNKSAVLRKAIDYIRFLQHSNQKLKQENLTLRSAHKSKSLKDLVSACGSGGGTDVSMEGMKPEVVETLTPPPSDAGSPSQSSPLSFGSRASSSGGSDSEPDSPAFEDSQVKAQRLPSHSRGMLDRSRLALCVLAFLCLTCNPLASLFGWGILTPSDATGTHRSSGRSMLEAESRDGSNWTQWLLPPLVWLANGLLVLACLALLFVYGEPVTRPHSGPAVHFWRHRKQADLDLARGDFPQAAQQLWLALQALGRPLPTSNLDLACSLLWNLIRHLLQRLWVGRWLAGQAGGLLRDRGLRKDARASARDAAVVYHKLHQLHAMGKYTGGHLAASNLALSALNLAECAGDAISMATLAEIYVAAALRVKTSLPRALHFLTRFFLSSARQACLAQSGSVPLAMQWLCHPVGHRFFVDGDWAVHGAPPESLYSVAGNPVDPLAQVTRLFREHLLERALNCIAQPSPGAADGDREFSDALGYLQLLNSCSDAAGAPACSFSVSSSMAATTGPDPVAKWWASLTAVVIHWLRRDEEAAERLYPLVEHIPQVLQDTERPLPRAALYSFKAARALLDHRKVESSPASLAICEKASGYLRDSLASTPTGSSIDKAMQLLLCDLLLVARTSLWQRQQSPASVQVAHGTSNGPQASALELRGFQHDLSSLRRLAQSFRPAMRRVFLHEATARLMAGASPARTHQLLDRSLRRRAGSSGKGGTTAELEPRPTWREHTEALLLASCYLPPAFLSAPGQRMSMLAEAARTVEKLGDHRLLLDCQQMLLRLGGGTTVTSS

[4] = biological target: T1, Sterol regulatory element-binding protein 1 (Mus musculus); experiment: Inhibition of SREBP1c in mouse 3T3L1 preadipocytes assessed as downregulation of SCD-1 mRNA expression at 50 to 100 uM after 8 days by qRT-PCR analysis; assay type: cell-based
[5] = Downregulation of LPL mRNA expression in mouse 3T3L1 preadipocytes at 50 to 100 uM after 8 days by qRT-PCR analysis; assay type: functional, cell-based; conditions: 3T3-L1
[6] = biological target: T2, Peroxisome proliferator-activated receptor gamma (Mus musculus) (UniProt P37238); experiment: Inhibition of PPARgamma in mouse 3T3L1 preadipocytes at 50 to 100 uM after 8 days by Western blot analysis relative to control; assay type: cell-based
T2 sequence (whole entry): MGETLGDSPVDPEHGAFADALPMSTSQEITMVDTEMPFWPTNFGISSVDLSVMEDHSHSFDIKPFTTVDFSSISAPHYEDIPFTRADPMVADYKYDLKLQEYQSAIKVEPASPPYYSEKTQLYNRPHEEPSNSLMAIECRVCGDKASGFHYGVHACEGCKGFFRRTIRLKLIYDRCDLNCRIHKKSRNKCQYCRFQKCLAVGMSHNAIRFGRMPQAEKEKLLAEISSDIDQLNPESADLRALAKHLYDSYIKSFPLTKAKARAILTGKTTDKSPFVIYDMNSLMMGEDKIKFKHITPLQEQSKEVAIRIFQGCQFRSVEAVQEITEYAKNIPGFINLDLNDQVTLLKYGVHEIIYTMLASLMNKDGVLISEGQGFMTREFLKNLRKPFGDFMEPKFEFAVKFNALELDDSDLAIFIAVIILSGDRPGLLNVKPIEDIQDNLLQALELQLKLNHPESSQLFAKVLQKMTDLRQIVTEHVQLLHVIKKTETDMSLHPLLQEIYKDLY

[7] = biological target: CCAAT/enhancer-binding protein alpha (Mus musculus) (UniProt P53566); experiment: Inhibition of C/EBPalpha in mouse 3T3L1 preadipocytes at 50 to 100 uM after 8 days by Western blot analysis relative to control; assay type: cell-based
[8] = biological target: T1, Sterol regulatory element-binding protein 1 (Mus musculus); experiment: Inhibition of SREBP1c in mouse 3T3L1 preadipocytes at 50 to 100 uM after 8 days by Western blot analysis; assay type: cell-based

CCAAT/enhancer-binding protein alpha (Mus musculus), sequence (P53566 whole entry): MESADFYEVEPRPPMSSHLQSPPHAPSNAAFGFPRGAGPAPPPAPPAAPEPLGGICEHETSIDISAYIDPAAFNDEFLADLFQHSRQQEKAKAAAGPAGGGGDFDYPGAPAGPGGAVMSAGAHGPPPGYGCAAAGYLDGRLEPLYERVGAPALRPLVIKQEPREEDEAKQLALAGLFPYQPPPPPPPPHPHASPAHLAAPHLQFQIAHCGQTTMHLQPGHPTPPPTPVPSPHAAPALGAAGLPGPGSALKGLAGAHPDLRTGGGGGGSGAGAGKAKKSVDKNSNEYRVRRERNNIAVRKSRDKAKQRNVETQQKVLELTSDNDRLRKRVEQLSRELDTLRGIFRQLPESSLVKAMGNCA

For `COc1cc(/C=C/C(=O)O[C@H]2[C@H](O[C@@H](CCc3ccc(O)c(O)c3)CC(=O)CCc3ccc(O)c(O)c3)OC[C@@H](O)[C@@H]2O)ccc1O`, the Activity (Mus musculus) was 71.3%.
Work on `O=C(CCc1ccc(O)c(O)c1)C[C@H](CCc1ccc(O)c(O)c1)O[C@@H]1OC[C@@H](O)[C@H](O)[C@H]1OC(=O)/C=C/c1ccccc1` yielded an Activity (Mus musculus) of 85.6%.
In the case of `O=C(O[C@@H]1Cc2c(O)cc(O)cc2O[C@@H]1c1cc(O)c(O)c(O)c1)c1cc(O)c(O)c(O)c1`, the Activity (Mus musculus) was 54.5%.
Compound `O=C(CCc1ccc(O)c(O)c1)C[C@H](CCc1ccc(O)c(O)c1)O[C@@H]1OC[C@@H](O)[C@H](O)[C@H]1OC(=O)/C=C/c1ccc(O)cc1` has an Activity (Mus musculus) of 95.7%.
`O=C1CCCCc2ccc(O)c(c2)-c2cc(ccc2O)CC1` showed an Activity (Mus musculus) of 54.4%.
In the case of `Oc1ccc2cc1-c1cc(ccc1O)CC(O)C(O)CC(O)C(O)C2` (stereo not given), the Activity (Mus musculus) was 58.5%.
With `O=C1CCc2ccc(O)c(c2)-c2cc(ccc2O)CCC(=O)C1O` the Activity [1] was “Active”, the Activity [2] was “Active” and the inhibition [3] was “Active”. For the same compound, the inhibition [4] was “Active”, the Activity [5] was “Active” and the Activity (Mus musculus) was 11.6%. For the same compound, the inhibition [6] was “Active”, the inhibition [7] was “Active” and the inhibition [8] was “Active”.
